{
  "source": "patent US20040248964A1",
  "about": "“Analgesic uses of norketamine and ketamine/norketamine prodrugs” (priority 2002, published 2004)",
  "key": {"[1]": {"experiment": "Norketamine i.v. drip in a patient with intractable bladder pain, pain level subjectively evaluated by the patient", "type": "in vivo, human", "protocol": "A patient, weighing approximately 60 kg, presents with intractable bladder pain (interstitial ceptitis), which has been diagnosed previously. Pain management in this patient consists of 100 mg Demoral every 3 hours; Dilaudid 2-4 mg every 4 hours; Dalmane 30 mg per day; Duralgesic patches (fentanyl transdermal patches); bladder washes with Pyridium (phenaropyridine HCl), which is a urinary tract analgesic; and belladonna and opiate suppositories. In addition to the pain medication, the patient takes Zanax and Tagamet to alleviate gastric distress, and Compazine (an anti-emetic) to counteract nausea. Gastric distress and nausea in this patient result from the pain medication.\nDespite the dosages and range of pain medications used by this patient, satisfactory pain management is not achieved.\nA diagnostic pre-sacral, or ilio-hypogastric, nerve block is performed on this patient to alleviate the pain. Unfortunately, the effect of the block is temporary, and the block is associated with significant motor weakness. After the block wears off, the patient states that they are unable to function, as the most mundane activities are exhausting.\nNorketamine (10 mg/cc) drip was administered i.v. over one hour, for a total dose of 40 mg norketamine. […] About 1 hour after norketamine infusion is discontinued, the patient reports that the level of pain has increased to about #15, and thereafter rapidly to its previous level. The patient continues to take the other pain medications without effect."}, "NMDA receptor": {"test_system": "NMDA receptor", "settings": "cited from earlier work"}, "[2]": {"settings": "cited from earlier work"}, "rats": {"test_system": "rats", "settings": "intravenously or intraspinally; cited from earlier work"}, "[3]": {"experiment": "Nasal spray self-administration of norketamine in the same patient"}},
  "data": [
    {"smiles": "CCOC(=O)NC1(c2ccccc2Cl)CCCCC1=O", "note": "(stereo not drawn)", "values": [
      {"measurement": "melting point", "value": "112 to 114", "unit": "°C"}
    ]},
    {"smiles": "CC(C)OC(=O)NC1(c2ccccc2Cl)CCCCC1=O", "note": "(stereo not drawn)", "values": [
      {"measurement": "melting point", "value": "124 to 126", "unit": "°C"}
    ]},
    {"smiles": "CCCCOC(=O)NC1(c2ccccc2Cl)CCCCC1=O", "note": "(stereo not drawn)", "values": [
      {"measurement": "melting point", "value": "130 to 132", "unit": "°C"}
    ]},
    {"smiles": "NC1(c2ccccc2Cl)CCCCC1=O", "note": "(stereo not drawn) [Norketamine, 2-(2-chlorophenyl)-2-amino-cyclohexanone]", "values": [
      {"measurement": "reduction of the pain level by a factor", "setting": "[1]; 10 mg/cc drip i.v. over one hour, total dose 40 mg, from #20, subjectively evaluated by the patient", "value": 2},
      {"measurement": "pain level about 1 hour after norketamine infusion is discontinued", "setting": "[1]; thereafter rapidly to its previous level", "value": "~15"},
      {"measurement": "pain level after norketamine infusion", "setting": "[1]; total dose 40 mg i.v. over one hour, level before #20", "value": "10-12"},
      {"measurement": "binding to the NMDA receptor compared with S- or R-ketamine", "setting": "NMDA receptor", "value": "less tightly"},
      {"measurement": "anesthetic and analgesic potency relative to ketamine", "setting": "[2]; speculated", "value": "one third"},
      {"measurement": "adverse sequelae compared with an equal dose of ketamine", "setting": "rats", "value": "fewer of the adverse sequelae"},
      {"measurement": "control of breakthrough pain", "setting": "[3]; nasal administration", "value": "particularly effective"},
      {"measurement": "pain management with nasal administration", "setting": "[3]; nasal spray 100 mg/ml, 16 mg per spray, 1-2 sprays for severe pain", "value": "remarkable pain management"}
    ]},
    {"smiles": "CN[C@]1(c2ccccc2Cl)CCCCC1=O", "note": "[S-ketamine, reference compound]", "values": [
      {"measurement": "potency relative to R-ketamine", "setting": "[2]; in vivo", "value": "twice as potent"}
    ]}
  ]
}
